One assay concerns the target T1, p300 (Homo sapiens, UniProt Q09472).
T1 construct: expressed in transfected cells; host or cells: HEK293T (transient)
As to the kind of experiment: In-situ photocrosslinking with p300-p probe and competition by AceTAG-1 in HEK293T cells. Type of assay: cell-based. To be noted: increasing concentrations of AceTAG-1, 30 min, FIG. 3F. As to the method:
In-situ photocrosslinking with p300-BRD photocrosslinking probe and competition by AceTAG-1: At 50%-70% confluency, HEK293t cells in 6-well plates were transfected with pSG5-HA-p300. After 24 h, cells were co-treated for 30 min with […] p300-p probe and increasing concentration of AceTAG-1 in serum-free media. Cells then underwent UV-photocrosslinking (365 nm) for 20 min at 4° C. and harvested in cold DPBS by scraping and centrifugation. Cell pellets were washed with cold DPBS two times and aspirated. Cells were then lysed in 200 μL DPBS buffer supplemented with 1X Halt protease inhibitor cocktail. Lysate was fractionated by ultracentrifuge (100000 g, 45 min, 4° C.) to provide soluble fraction (supernatant) and membrane fraction (pellets). Soluble fraction was normalized to 2 mg/mL, underwent click reaction with Rhodamine-azide as previously described. Proteins (25 μg total protein loaded per gel lane) were resolved using SDS-PAGE (6% acrylamide). In-gel fluorescence visualization and immunoblot analysis was carried out as previously described.

Assay [1] has as its system H3.3-FKBP12^F36V HeLa cells. Put plainly: Quantitative acetylproteomics of H3.3-FKBP12^F36V HeLa cells. Type of assay: cell-based, Human. As to the method: Sample preparation: Frozen cell pellets were thawed on ice and lysed in a buffer containing 50 mM Tris-HCl (pH 7.5), 150 mM NaCl, 1 mM EDTA, 1% NP-40, 0.1% sodium deoxycholate, 5 mM sodium butyrate, 10 mM nicotinamide and 1X Pierce™ protease inhibitor cocktail. Cells were sonicated to ensure complete lysis, mixed with 5 M NaCl at a ratio of 1:10 with sample volume and incubated on ice for 15 min to release chromatin-bound proteins. Cell lysates were then sonicated again to shear genomic DNA. Cellular debris was cleared by centrifugation at 16,000 g for 20 min at 4° C., protein concentration was determined using a Pierce™ BCA assay and ˜10 mg of protein was aliquoted for acetyl-proteomic analysis. Proteins were denatured with 8 M urea in 50 mM HEPES, reduced with 5 mM dithiothreitol for 30 min at 56° C., then alkylated with 5 mM iodoacetamide for 20 min in the dark at RT. Following alkylation, proteins were precipitated using chloroform-methanol as previously described, and protein pellets were dried at 56° C. for 15 min. Proteins pellets were resuspended in 1 M urea in 50 mM HEPES and digested in a two-step process with LysC and trypsin as previously described. Digested peptides were desalted using Phenomenex Strata-X polymeric reverse phase extraction cartridges using the following protocol. Cartridges were conditioned with 1 mL 100% acetonitrile, 1 mL 80% acetonitrile/0.5% AA, and 1 mL 0.1% TFA. Peptides were then loaded on to the cartridge at a reduced flow rate and desalted with 5 mL 0.1% TFA followed by 1 mL 0.5% AA. Desalted peptides were eluted using 1 mL 40% acetonitrile/0.5% AA followed by 1 mL 80% acetonitrile/0.5% AA and lyophilized. Digested peptides were quantified using the Pierce™ Quantitative Colorimetric Peptide Assay and […] was aliquoted from each for total protein analysis while the remaining peptide was lyophilized and retained for acetyl-peptide enrichment.
Acetyl-peptide Enrichment: Acetyl-peptides were enriched using the PTMScan® Acetyl-Lysine Motif [Ac-K] Kit according to manufacturer instructions. […]

In another assay the test system is TP53 target genes. Put plainly: RNA-seq analysis of FKBP12^F36V-p53 H1299 cells. Type of assay: cell-based, Human.
The subject of the next assay is p21 promoter. Put plainly: ChIP-qPCR of FKBP12^F36V-p53 binding to p21 promoter. Type of assay: cell-based, Human. To be noted: AceTAG-1 treatment vs DMSO, FIG. 7G. An excerpt:
The p53/p21 ^CIP/WAF1 pathway is one of the most well-studied pathways related to p53 acetylation ^[8a, 14]. It has been reported that acetylation of p53 at lysine 373 and 382 play an important in activating transcription and translation of the p21^CIP/WAF1 gene^[15], which inhibits cell cycle progression during G1 and G2 phases ^[16]. However, it is still unknown whether these are the only two sites necessary for activation of downstream pathway. Moreover, the molecular mechanism as to how AceTAG-1 mediates p21 induction is currently uncertain as there are multiple hypotheses of how p53 acetylation affects transcriptional activity. […] We first tested whether AceTAG-mediated p53 acetylation increases its DNA binding to p21 promoter by ChIP-qPCR. The cells were incubated with AceTAG-1 and FKBP12^F36V-HA-p53 was immunoprecipitated, where DNA binding to the protein was purified for qPCR analysis. Among five p21 DNA sequences, binding of FKBP12^F36V-p53 to four previously reported p53 binding sites on p21 promoter (Mujtaba et al., Molecular Cell 13, 251-263, 2004) were increased with AceTAG-1 treatment.

Where [2] appears, read: 3 μM AceTAG-1 compared to vehicle, FIG. 7F.

T1 sequence (Q09472 whole entry, species assumed): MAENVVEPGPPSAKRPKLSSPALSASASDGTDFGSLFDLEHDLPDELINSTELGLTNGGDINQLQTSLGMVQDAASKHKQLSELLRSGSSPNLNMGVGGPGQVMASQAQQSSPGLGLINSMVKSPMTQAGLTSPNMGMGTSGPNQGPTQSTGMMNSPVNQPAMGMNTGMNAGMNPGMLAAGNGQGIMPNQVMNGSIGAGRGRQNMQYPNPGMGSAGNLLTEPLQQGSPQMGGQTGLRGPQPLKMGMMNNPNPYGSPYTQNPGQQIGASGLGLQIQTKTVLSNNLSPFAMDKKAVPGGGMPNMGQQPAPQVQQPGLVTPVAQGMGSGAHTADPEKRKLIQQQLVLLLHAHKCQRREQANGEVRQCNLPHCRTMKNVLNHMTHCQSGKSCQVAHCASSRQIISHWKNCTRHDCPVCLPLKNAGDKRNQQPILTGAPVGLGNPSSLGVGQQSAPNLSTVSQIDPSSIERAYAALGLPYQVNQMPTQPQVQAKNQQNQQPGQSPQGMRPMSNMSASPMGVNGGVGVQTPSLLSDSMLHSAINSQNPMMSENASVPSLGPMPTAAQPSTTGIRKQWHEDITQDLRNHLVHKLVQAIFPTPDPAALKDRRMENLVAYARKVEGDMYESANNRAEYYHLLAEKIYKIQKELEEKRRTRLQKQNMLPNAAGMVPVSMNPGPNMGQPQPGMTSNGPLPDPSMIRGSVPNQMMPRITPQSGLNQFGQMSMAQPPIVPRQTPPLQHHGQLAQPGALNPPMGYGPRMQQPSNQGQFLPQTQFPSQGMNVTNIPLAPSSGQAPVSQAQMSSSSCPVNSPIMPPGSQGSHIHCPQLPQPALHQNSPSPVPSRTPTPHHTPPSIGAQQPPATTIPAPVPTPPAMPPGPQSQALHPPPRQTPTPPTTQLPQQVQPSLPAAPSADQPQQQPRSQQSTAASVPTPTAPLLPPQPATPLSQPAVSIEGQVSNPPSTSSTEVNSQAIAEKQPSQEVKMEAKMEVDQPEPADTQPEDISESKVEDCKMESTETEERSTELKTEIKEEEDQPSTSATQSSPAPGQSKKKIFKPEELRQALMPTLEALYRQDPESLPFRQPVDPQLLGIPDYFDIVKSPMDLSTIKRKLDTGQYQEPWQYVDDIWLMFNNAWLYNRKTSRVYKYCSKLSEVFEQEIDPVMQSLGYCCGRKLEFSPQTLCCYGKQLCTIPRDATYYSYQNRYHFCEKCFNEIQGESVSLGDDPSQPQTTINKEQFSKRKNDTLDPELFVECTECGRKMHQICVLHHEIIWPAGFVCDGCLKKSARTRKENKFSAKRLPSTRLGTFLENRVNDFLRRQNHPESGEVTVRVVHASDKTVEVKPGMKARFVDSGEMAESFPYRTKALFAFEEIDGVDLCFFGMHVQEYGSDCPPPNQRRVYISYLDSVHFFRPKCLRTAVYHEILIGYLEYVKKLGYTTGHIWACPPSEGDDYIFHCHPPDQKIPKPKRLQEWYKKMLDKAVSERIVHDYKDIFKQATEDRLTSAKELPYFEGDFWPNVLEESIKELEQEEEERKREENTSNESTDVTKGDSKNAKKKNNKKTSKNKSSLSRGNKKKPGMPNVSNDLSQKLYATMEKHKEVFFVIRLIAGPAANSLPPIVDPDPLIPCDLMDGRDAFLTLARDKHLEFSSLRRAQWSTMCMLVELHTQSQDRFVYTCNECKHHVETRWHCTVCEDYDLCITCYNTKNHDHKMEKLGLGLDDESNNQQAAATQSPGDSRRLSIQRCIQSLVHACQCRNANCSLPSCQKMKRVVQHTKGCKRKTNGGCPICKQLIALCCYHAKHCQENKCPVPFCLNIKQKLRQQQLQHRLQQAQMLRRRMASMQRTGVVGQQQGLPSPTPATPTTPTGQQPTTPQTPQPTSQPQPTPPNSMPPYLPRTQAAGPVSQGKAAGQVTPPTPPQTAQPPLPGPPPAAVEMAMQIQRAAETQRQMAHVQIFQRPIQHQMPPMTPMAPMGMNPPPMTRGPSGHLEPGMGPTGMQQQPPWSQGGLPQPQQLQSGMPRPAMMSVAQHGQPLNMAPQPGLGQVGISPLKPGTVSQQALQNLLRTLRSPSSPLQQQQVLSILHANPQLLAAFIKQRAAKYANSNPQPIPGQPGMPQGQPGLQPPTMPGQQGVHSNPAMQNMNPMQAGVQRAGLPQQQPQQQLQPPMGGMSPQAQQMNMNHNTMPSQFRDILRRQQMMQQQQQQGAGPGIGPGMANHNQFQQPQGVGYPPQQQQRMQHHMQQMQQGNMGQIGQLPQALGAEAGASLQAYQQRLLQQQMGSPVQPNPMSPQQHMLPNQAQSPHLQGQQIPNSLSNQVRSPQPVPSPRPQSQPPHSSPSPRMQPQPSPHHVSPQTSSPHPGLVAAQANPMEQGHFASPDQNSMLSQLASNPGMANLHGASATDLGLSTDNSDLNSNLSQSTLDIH

As for `CC[C@H](C(=O)N1CCCC[C@H]1C(=O)O[C@H](CCc1ccc(OC)c(OC)c1)c1cccc(OCC(=O)NCCOCCOCCC(=O)NCCOc2ccc(CCc3nc4cc(-c5c(C)noc5C)ccc4n3CCN3CCOCC3)cc2)c1)c1cc(OC)c(OC)c(OC)c1` [AceTAG-1, (R)-3-(3,4-dimethoxyphenyl)-1-(3-((15-(4-(2-(5-(3,5-dimethylisoxazol-4-yl)-1-(2-morpholinoethyl)-1H-benzo[d]imidazol-2-yl)ethyl)phenoxy)-2,12-dioxo-6,9-dioxa-3,13-diazapentadecyl)oxy)phenyl)propyl (S)-1-((S)-2-(3,4,5-trimethoxyphenyl)butanoyl)piperidine-2-carboxylate], the “competition of p300-p probe binding to p300” value on p300 is “efficiently competed”. In assay [1] (600 nM AceTAG, FIG. 5D), the “changes in acetylation of detected proteins relative to DMSO” value is listed as “no substantial changes in acetylation of any detected protein”. Also, in assay [1] (AceTAG treatment, FIG. 9C), the “endogenous histone lysine acetylation, including H3.3” value is reported as “no substantial changes”. Further, the “increases in apoptotic (Bax, Puma), metabolic (GLS2) or autoregulatory (Mdm2) targets” value in the assay with TP53 target genes (3 μM AceTAG-1, RNA-seq) is on record as “little to no increases”. Moreover, in the assay with TP53 target genes (setting [2]), the “upregulation of CDKNIA transcript” value was about 2.8 fold, the “upregulation of GDF15 transcript” value is given as about 3 fold, the “upregulation of SLC7A11 transcript” value was about 1.7 fold and the “upregulation of TP5313 transcript” value is on record as about 1.6 fold. For the same molecule, in the assay on p21 promoter, the “binding at the non p53 binding sites within the C-terminus of p21 gene” value is given as “no significant increase” and the “binding of FKBP12^F36V-p53 to four p53 binding sites on p21 promoter” value is listed as “increased”.

For the origin of these results see patent US20240238426A1, “PROTEIN ACYLATION MODULATION BY HETEROBIFUNCTIONAL MOLECULES” (THE SCRIPPS RESEARCH INSTITUTE, priority 2021, published 2024).
